From patent US10556945B2, “Antagonist antibodies directed against calcitonin gene-related peptide and methods using same” (Teva Pharmaceuticals International GmbH, priority 2014, dated 2020)
Marks after values point to notes of the source that are not given here.

Columns and labels:
[1] = tested on: middle meningeal artery (MMA) dilation evoked by electrical field stimulation; experiment: Dural artery (closed cranial window) assay; type: in vivo, rat
Method: Closed Cranial Window Model: The purpose of this experiment was to determine the acute effect of anti-CGRP antagonist antibodies and compare it with the acute effect of the CGRP receptor antagonist BIBN4096BS. Experiments were carried out as previously described (Williamson et al., Cephalalgia 17(4):518-24 (1997)) with the following modifications. Sprague Dawley rats (300-400 g) were anesthetized with 70 mg/kg i.p. pentobarbital. Anesthesia was maintained with 20 mg/kg/hr i.v. pentobarbital. Rats were cannulated through the jugular vein for delivery of all drugs. Blood pressure was monitored with a probe (mikro-tip catheter, Millar Instruments) threaded through the femoral artery into the abdominal aorta. The rats were tracheotomized and breathing rate was maintained at 75 breaths per minute at a volume of 3.5 mL. After fixating the head in a stereotactic instrument and removing the scalp, a 2×6 mm window in the left parietal area just lateral to the sagittal suture was made by thinning the bone with a dental drill. Using a micromanipulator, a platinum bipolar electrode was lowered onto the surface and covered with heavy mineral oil. Lateral to the electrode window another window of 5×6 mm was created and filled with heavy mineral oil through which the diameter of a branch of the middle meningeal artery (MMA) was continuously monitored with a CCD camera and a video dimension analyzer (Living Systems). The rats were rested for no less than 45 minutes after the preparation. A baseline response to electrical stimulation was established (15 V, 10 hz, 0.5 ms pulses, 30 seconds) and then rats were dosed i.v. with experimental compound (10 mg/kg mu7E9, 300 μg/kg BIBN4096BS or PBS 0.01% Tween 20). Additional electrical stimulations were done at 5 (BIBN4096BS), 30, 60, 90 and 120 minutes after dosing. All data was recorded using chart software (ADInstruments).
The purpose of this experiment was to determine if the anti CGRP antibody could still block electrically stimulated MMA dilation 7 days after dosing. Preparation of the rats was identical to the above described acute experiment (Example 6) with the following exceptions. […] It was impossible to establish a baseline dilation response to electrical stimulation prior to dosing as in the acute experiment so the antibody groups were compared to dilation of the MMA in a vehicle (PBS, 0.01% Tween 20) dosed control group. After the rats were allowed to rest for no less than 45 minutes the dura was electrically stimulated at 30 minute intervals. Stimulations were at 2.5V, 5V, 10V, 15V and 20V, all at 10 Hz, 0.5 ms pulses for 30 seconds.

chronic migraine = experiment: Clinical study of antibody G1 in chronic migraine
[2] = tested on: CGRP activity (skin blood flow after saphenous nerve stimulation); experiment: Skin vasodilatation induced by stimulation of rat saphenous nerve; type: in vivo; settings: for blood flow increase stimulated by electronic pulses on saphenous nerve: compared to vehicle
Method: To test antagonist activity of anti-CGRP antibodies, effect of the antibodies on skin vasodilatation by stimulation of rat saphenous nerve was tested using a rat model described previously. Escott et al., Br. J. Pharmacol. 110:772-776, 1993. In this rat model, electrical stimulation of saphenous nerve induces release of CGRP from nerve endings, resulting in an increase in skin blood flow. Blood flow in the foot skin of male Sprague Dawley rats (170-300 g, from Charles River Hollister) was measured after saphenous nerve stimulation. Rats were maintained under anesthesia with 2% isoflurane. Bretylium tosylate (30 mg/kg, administered i.v.) was given at the beginning of the experiment to minimize vasoconstriction due to the concomitant stimulation of sympathetic fibers of the saphenous nerve. Body temperature was maintained at 37° C. by the use of a rectal probe thermostatically connected to a temperature controlled heating pad. Compounds including antibodies, positive control (CGRP 8-37), and vehicle (PBS, 0.01% Tween 20) were given intravenously through the right femoral vein, except for the experiment shown in FIG. 3, the test compound and the control were injected through tail vein, and for experiments shown in FIGS. 2A and 2B, antibodies 4901 and 7D11 were injected intraperitoneally (IP). Positive control compound CGRP 8-37 (vasodilatation antagonist), due to its short half-life, was given 3-5 min before nerve stimulation at 400 nmol/kg (200 μl). Tan et al., Clin. Sci. 89:656-73, 1995. The antibodies were given in different doses (1 mg/kg, 2.5 mg/kg, 5 mg/kg, 10 mg/kg, and 25 mg/kg).
For experiments shown in FIGS. 2A and 2B, antibody 4901 (25 mg/kg), antibody 7D11 (25 mg/kg), or vehicle control (PBS with 0.01% Tween 20) was administered intraperitoneally (IP) 72 hours before the electrical pulse stimulation. For experiment shown in FIG. 3, antibody 4901 (1 mg/kg, 2.5 mg/kg, 5 mg/kg, or 25 mg/kg) or vehicle control (PBS with 0.01% Tween 20) was administered intravenously 24 hours before the electrical pulse stimulation. After administration of the antibodies or vehicle control, the saphenous nerve of the right hindlimb was exposed surgically, cut proximally and covered with plastic wrap to prevent drying. A laser Doppler probe was placed over the medio-dorsal side of the hindpaw skin, which is the region innervated by the saphenous nerve. Skin blood flow, measured as blood cell flux, was monitored with a laser Doppler flow meter. When a stable base-line flux (less than 5% variation) was established for at least 5 min, the nerve was placed over platinum bipolar electrodes and electrically stimulated with 60 pulses (2 Hz, 10 V, 1 ms, for 30 sec) and then again 20 minutes later. Cumulative change in skin blood flow was estimated by the area under the flux-time curve (AUC, which is equal to change in flux multiplied by change in time) for each flux response to electrical pulse stimulation. The average of the blood flow response to the two stimulations was taken. Animals were kept under anesthesia for a period of one to three hours.
For experiments shown in FIGS. 4A and 4B, saphenous nerve was exposed surgically before antibody administration. The saphenous nerve of the right hindlimb was exposed surgically, cut proximally and covered with plastic wrap to prevent drying. […] Skin blood flow, measured as blood cell flux, was monitored with a laser Doppler flow meter. […]

[3] = 900 mg group (n = 85), Change from Baseline to Month 1
[4] = 900 mg group (n = 85), Change from Baseline to Month 2
[5] = 900 mg group (n = 85), Change from Baseline to Month 3
[6] = 675/225 mg group (n = 87), Change from Baseline to Month 1
[7] = 675/225 mg group (n = 87), Change from Baseline to Month 2
[8] = 675/225 mg group (n = 87), Change from Baseline to Month 3

NCCCC[C@H](NC(=O)[C@@H](Cc1cc(Br)c(O)c(Br)c1)NC(=O)N1CCC(N2Cc3ccccc3NC2=O)CC1)C(=O)N1CCN(c2ccncc2)CC1 [BIBN4096BS]
time after dosing within which MMA dilation is blocked ([1]; 300 μg/kg i.v.): ≤ 5 min | time by which the effect has completely disappeared ([1]; 300 μg/kg i.v.): ≤ 90 min | MMA dilation evoked by electrical field stimulation ([1]; 300 μg/kg i.v., acute): blocks

G1: anti-CGRP antagonist antibody produced by expression vectors ATCC PTA-6867 and PTA-6866; VH SEQ ID NO:1, VL SEQ ID NO:2; modified human IgG2 [Clone G1]
Days using acute medications, change from baseline, mean (SE) (chronic migraine; [3]): −5.4 (0.7)** Days | Headache hours, change from baseline, mean (SE) (chronic migraine; [3]): −56.8 (7.3)^+ hours | M/S Headache Days (days with moderate to severe headaches), change from baseline, mean (SE) (chronic migraine; [3]): −5.7 (0.6)^+ Days | Migraine Days, change from baseline, mean (SE) (chronic migraine; [3]): −6.3 (0.7)^+ Days | Days using acute medications, change from baseline, mean (SE) (chronic migraine; [4]): −5.8 (0.7) Days | Headache hours, change from baseline, mean (SE) (chronic migraine; [4]): −66.2 (8.1)^+ hours | M/S Headache Days (days with moderate to severe headaches), change from baseline, mean (SE) (chronic migraine; [4]): −5.9 (0.6) Days | Migraine Days, change from baseline, mean (SE) (chronic migraine; [4]): −6.7 (0.7)^ Days | Headache hours, change from baseline, mean (SE) (chronic migraine; [5]): −67.5 (8.6)** hours | Migraine Days, change from baseline, mean (SE) (chronic migraine; [5]): −7.1 (0.8)* Days | Subjects with >50% Decrease in M/S Headache days (chronic migraine; 900 mg group, Month 1): 47 (55%)^+ N (%) | Subjects with >75% Decrease in M/S Headache days (chronic migraine; 900 mg group, Month 1): 28 (33%)^+ N (%) | Subjects with >50% Decrease in M/S Headache days (chronic migraine; 900 mg group, Month 2): 47 (55%)* N (%) | Subjects with >75% Decrease in M/S Headache days (chronic migraine; 900 mg group, Month 2): 26 (31%) N (%) | Subjects with >50% Decrease in M/S Headache days (chronic migraine; 900 mg group, Month 3): 47 (55%)^+ N (%) | Subjects with >75% Decrease in M/S Headache days (chronic migraine; 900 mg group, Month 3): 27 (32%)* N (%) | Days using acute medications, change from baseline, mean (SE) (chronic migraine; [6]): −5.3 (0.7)* Days | Headache hours, change from baseline, mean (SE) (chronic migraine; [6]): −44.1 (7.3)** hours | M/S Headache Days (days with moderate to severe headaches), change from baseline, mean (SE) (chronic migraine; [6]): −4.9 (0.6)** Days | Days using acute medications, change from baseline, mean (SE) (chronic migraine; [7]): −6.6 (0.7)* Days | Headache hours, change from baseline, mean (SE) (chronic migraine; [7]): −58.3 (8.1)* hours | M/S Headache Days (days with moderate to severe headaches), change from baseline, mean (SE) (chronic migraine; [7]): −5.8 (0.6) Days | Migraine Days, change from baseline, mean (SE) (chronic migraine; [7]): −6.6 (0.7) Days | Days using acute medications, change from baseline, mean (SE) (chronic migraine; [8]): −6.6 (0.7)* Days | Headache hours, change from baseline, mean (SE) (chronic migraine; [8]): −59.8 (8.6)* hours | M/S Headache Days (days with moderate to severe headaches), change from baseline, mean (SE) (chronic migraine; [8]): −6.0 (0.7)* Days | Migraine Days, change from baseline, mean (SE) (chronic migraine; [8]): −6.8 (0.8) Days | Subjects with >50% Decrease in M/S Headache days (chronic migraine; 675/225 mg group, Month 1): 36 (41%)* N (%) | Subjects with >75% Decrease in M/S Headache days (chronic migraine; 675/225 mg group, Month 1): 19 (22%)** N (%) | Subjects with >50% Decrease in M/S Headache days (chronic migraine; 675/225 mg group, Month 2): 42 (48%) N (%) | Subjects with >75% Decrease in M/S Headache days (chronic migraine; 675/225 mg group, Month 2): 26 (30%)* N (%) | Subjects with >50% Decrease in M/S Headache days (chronic migraine; 675/225 mg group, Month 3): 46 (53%)** N (%) | Subjects with >75% Decrease in M/S Headache days (chronic migraine; 675/225 mg group, Month 3): 25 (29%)* N (%) | Average number of headache hours at visits 2, 3 and 4 (chronic migraine; both treatment groups vs placebo): significant decrease | number of headache hours in subjects using prevention medications (chronic migraine; e.g. topiramate and amitriptyline or propranolol, relative to a placebo group): significant decrease | blood flow increase stimulated by electronic pulses on saphenous nerve ([2]; 1 mg/kg i.v., stimulation at 90 min): significantly inhibited | blood flow increase stimulated by electronic pulses on saphenous nerve ([2]; 10 mg/kg i.v., stimulation at 90 and 120 minutes): significantly inhibited | blood flow increases in the dorso-medial hindpaw skin evoked by saphenous nerve stimulation ([2]; 10 mg/kg or 3 mg/kg i.v., 24 hours or 7 days prior to stimulation, vs vehicle): significantly inhibited | EC50 at 24 hours (dose required for 50% maximal effect) ([2]; i.v. 24 hours before stimulation, curve fit): 1.3 mg/kg | EC50 at 7 days (dose required for 50% maximal effect) ([2]; i.v. 7 days before stimulation, curve fit): 0.8 mg/kg | MMA dilation evoked by electrical stimulation ([1]; 10 mg/kg and 3 mg/kg i.v., 7 days prior, 10 to 20 volts, vs vehicle): significantly blocked
